From patent US8946446B2, “Pyrrolo sulfonamide compounds for modulation of orphan nuclear receptor RAR-related orphan receptor-γ (ROR-γ, NR1F3) activity and for the treatment of chronic inflammatory and autoimmune diseases” (Phenex Pharmaceuticals AG, priority 2011, dated 2015) come the findings set out here.

Where two headings read alike, the source gives them in different places.

A word on the IC50: it is the point on the concentration scale where inhibition reaches its midpoint.

The assay has as its target T1, RORγ ligand binding domain (LBD) (Homo sapiens, UniProt P51449).
T1 construct: made in house; host or cells: E. coli BL-21 (BL3), vector pDEST15
T1 sequence (P51449 269-508 limits assumed): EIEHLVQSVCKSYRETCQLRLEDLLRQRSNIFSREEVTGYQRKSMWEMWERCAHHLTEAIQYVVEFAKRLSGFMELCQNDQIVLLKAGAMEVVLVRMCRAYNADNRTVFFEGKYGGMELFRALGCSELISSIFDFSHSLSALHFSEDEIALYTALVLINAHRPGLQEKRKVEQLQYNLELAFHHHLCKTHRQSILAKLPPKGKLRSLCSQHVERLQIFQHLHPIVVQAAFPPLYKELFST
The experiment in a line: TR-FRET Activity Assay (ligand sensing, RORγ-LBD / coactivator peptide interaction). In kind it is biochemical. (Time-resolved FRET reads energy transfer from a long-lived donor to a nearby acceptor.)

The mark [1] stands for this setting: read-out: RORγ activity in the TR-FRET Activity Assay (IC50 FRET), Group.

As for `Cc1c(S(N)(=O)=O)cc(-c2cc(C(C)(C)C)cc(C(C)(C)C(=O)O)c2)n1CC1CCCCC1` [Example 46, 2-(3-(tert-Butyl)-5-(1-(cyclohexylmethyl)-5-methyl-4-sulfamoyl-1H-pyrrol-2-yl)phenyl)-2-methylpropanoic acid], under setting [1], the IC50 was greater than 2000 nM.
For `Cc1c(S(N)(=O)=O)cc(-c2cc(C(C)(C)C)cc(C(C)(C)CN)c2)n1CC1CCCCC1` [Example 48, 5-(3-(1-Amino-2-methylpropan-2-yl)-5-(tert-butyl)phenyl)-1-(cyclohexyl-methyl)-2-methyl-1H-pyrrole-3-sulfonamide], the IC50 under setting [1] was greater than 2000 nM.
As for `CC(=O)NCC(C)(C)c1cc(-c2cc(S(N)(=O)=O)c(C)n2CC2CCCCC2)cc(C(C)(C)C)c1` [Example 49, N-(2-(3-(tert-Butyl)-5-(1-(cyclohexylmethyl)-5-methyl-4-sulfamoyl-1H-pyrrol-2-yl)phenyl)-2-methylpropyl)acetamide], under setting [1], the IC50 is greater than 2000 nM.
With `Cc1c(S(N)(=O)=O)cc(-c2cc(C(C)(C)C)cc(C(C)(C)CO)c2)n1CC1CCCCC1` [Example 50], the IC50 is greater than 2000 nM.
Take `Cc1c(S(N)(=O)=O)cc(-c2cn(S(=O)(=O)c3ccccc3Cl)c3ccccc23)n1CC1CCCCC1` [Example 53, 5-(1-((2-Chlorophenyl)sulfonyl)-1H-indol-3-yl)-1-(cyclohexylmethyl)-2-methyl-1H-pyrrole-3-sulfonamide]: under setting [1], the IC50 fell in the range of 500 to 2000 nM.
